Data taken from ChEMBL document CHEMBL1151292, “Antineoplastic activity and cytotoxicity of flavones, isoflavones, and flavanones” (1979).
≈ marks a conversion by molar mass, not a printed value. Calls of active or inactive are those of the source.

Columns and labels:
[1] = test system: CCRF S-180; assay: In vivo antitumor activity against mouse S180 cells; type: functional, organism-based
[2] = test system: L1210; assay: In vivo antitumor activity against mouse L1210 cells; type: functional, organism-based
[3] = test system: CA-755; assay: In vivo antitumor activity against mouse CA-755 cells; type: functional, organism-based
[4] = test system: KB; assay: Cytotoxicity against human KB cells; type: functional; conditions: read-out: ED50 (the source's name)
[5] = test system: Lewis lung carcinoma cell line; assay: In vivo antitumor activity against mouse LLC cells; type: functional, organism-based

SMILES	Activity [1]	Activity [2]	Activity [3]	EC50 [4]	Activity [5]
COc1ccc(-c2cc(=O)c3c(OC)c(O)c(OC)cc3o2)cc1	inactive	inactive	inactive		
O=C1CC(c2ccccc2)Oc2ccc(Cl)cc21 (configuration not stated)	inactive	inactive	inactive	1 µg/mL (≈ 3.87 µM)	
COc1ccc(-c2oc3cc(OC(C)=O)cc(OC(C)=O)c3c(=O)c2OC)cc1	inactive	inactive	Active		
COc1ccc2c(=O)c(N(S(C)(=O)=O)S(C)(=O)=O)c(-c3ccccc3)oc2c1CN(C)C	inactive	inactive	inactive	> 100 µg/mL	
COc1ccc(C2CC(=O)c3c(cc(OC)c(OC)c3OC)O2)cc1 (configuration not stated)	inactive	inactive	inactive		
O=c1cc(-c2ccccc2F)oc2ccccc12	inactive	inactive			inactive
O=C1C[C@@H](c2ccccc2)Oc2cc(O)cc(O)c21	inactive	inactive	inactive		
COc1cc(O)c2c(=O)c(O)c(-c3ccc(O)c(O)c3)oc2c1	inactive	inactive	inactive		
COc1ccc2c(c1)C(=O)CC(c1ccccc1OC)O2 (configuration not stated)	inactive	inactive	inactive	24 µg/mL (≈ 84.4 µM)	
COc1cc(O)c2c(=O)c(OC)c(-c3ccc(OC)c(OC)c3)oc2c1 [RETUSIN]	inactive	inactive	inactive	41 µg/mL (≈ 114 µM)	
O=C1CC(c2ccc(Cl)cc2)Oc2ccc(Cl)cc21 (configuration not stated)	inactive	inactive	inactive		
O=c1c(-c2ccc(O)cc2)coc2cc(O)cc(O)c12 [GENISTEIN]	inactive	inactive	inactive	6.7 µg/mL (≈ 24.8 µM)	
COc1ccc(-c2cc(=O)c3c(OC)c(OC)c(OC)cc3o2)cc1	inactive	inactive	inactive	27 µg/mL (≈ 78.9 µM)	
COc1c(OC)c(OC)c(-c2cc(=O)c3c(OC)c(OC)c(OC)c(OC)c3o2)c(OC)c1OC				4 µg/mL (≈ 8.12 µM)	inactive
CC(=O)Nc1c(-c2ccccc2)oc2ccccc2c1=O	inactive	inactive	inactive	> 100 µg/mL	
CC(=O)Oc1cc(O)c2c(=O)c(OC(C)=O)c(-c3ccc(OC(C)=O)c(OC(C)=O)c3)oc2c1	inactive	inactive	inactive	22 µg/mL (≈ 46.8 µM)	
COc1ccc(C2CC(=O)c3ccccc3O2)cc1OC (configuration not stated)	inactive	inactive	inactive		
COc1cc2c(c(OC)c1O)C(=O)CC(c1ccc(O)cc1)O2 (configuration not stated)	inactive	inactive	inactive		
COc1ccc(-c2oc3cc(O)cc(O)c3c(=O)c2OC)cc1	inactive	inactive	Active		
Cl.NC1C(=O)c2ccccc2OC1c1ccccc1 (configuration not stated)	inactive	inactive	inactive	3 µg/mL	
COc1c(OC)c(OC)c2c(c1OC)OC(c1ccc(O)cc1)CC2=O (configuration not stated)	inactive	inactive	inactive	26 µg/mL (≈ 72.1 µM)	
COc1cc2oc(-c3ccc(O)cc3)cc(=O)c2c(OC)c1OC	inactive	inactive	inactive	19 µg/mL (≈ 57.9 µM)	

SMILES	Activity [1]	Activity [2]	Activity [3]	EC50 [4]	Activity [5]
O=C1/C(=N\O)C(c2ccccc2)Oc2ccccc21 (configuration not stated)	inactive	inactive	inactive	35 µg/mL (≈ 138 µM)	
COc1ccc([C@@H]2CC(=O)c3c(O)cc(O[C@@H]4O[C@H](CO[C@@H]5O[C@@H](C)[C@H](O)[C@@H](O)[C@H]5O)[C@@H](O)[C@H](O)[C@H]4O)cc3O2)cc1O	inactive	inactive	inactive		
O=C1CC(c2cccc(Cl)c2)Oc2ccccc21 (configuration not stated)	inactive	inactive	Active		
O=C1CC(c2ccc(Cl)cc2Cl)Oc2ccc(Cl)cc21 (configuration not stated)	inactive	inactive	inactive		
O=C1c2ccccc2OC(Cl)(c2ccccc2)C1Cl (configuration not stated)	inactive	inactive	inactive		
COc1ccc(C2CC(=O)c3ccccc3O2)cc1 (configuration not stated)	inactive	inactive	inactive		
O=C1CC(c2ccc(Cl)cc2)Oc2ccccc21 (configuration not stated)	inactive	inactive	inactive		
O=c1cc(-c2cccc([N+](=O)[O-])c2)oc2ccccc12	inactive	inactive	inactive	2 µg/mL (≈ 7.48 µM)	
O=C1c2ccc(O)cc2OC(c2cc(O)c(O)c(O)c2)C1O (configuration not stated) [DIHYDROBINETIN]	inactive	inactive	inactive	23 µg/mL (≈ 75.6 µM)	
COc1cc2c(c(OC)c1OC)C(=O)CC(c1ccc(O)cc1)O2 (configuration not stated)	inactive	inactive	inactive		
Nc1c(-c2ccccc2)oc2ccccc2c1=O	inactive	inactive	inactive	> 100 µg/mL	
COc1ccc(C2CC(=O)c3c(cc(OC)c(O)c3OC)O2)cc1 (configuration not stated)	inactive	inactive	inactive		
COc1ccc(C2CC(=O)c3c(OC(C)=O)cc(OC(C)=O)cc3O2)cc1OC(C)=O (configuration not stated)	inactive	inactive	inactive		
O=C1CC(c2ccccc2Cl)Oc2ccc(Cl)cc21 (configuration not stated)	inactive	inactive	inactive		
Cc1oc2cc(O)ccc2c(=O)c1-c1ccccc1Br	inactive	inactive	inactive	66 µg/mL (≈ 199 µM)	
O=c1cc(-c2ccccc2)oc2ccc(F)cc12	inactive				inactive
O=c1cc(-c2ccccc2)oc2ccccc12	inactive	inactive	inactive		
O=C1CC(c2ccccc2Cl)Oc2ccccc21 (configuration not stated)	inactive	inactive	inactive		
COc1ccc([C@@H]2CC(=O)c3c(O)cc(O)cc3O2)cc1O	inactive	inactive	inactive		
COc1ccc2c(c1)C(=O)CC(c1ccccc1)O2 (configuration not stated)	Active	inactive	inactive		
COc1ccc(C2CC(=O)c3cc(OC)ccc3O2)cc1 (configuration not stated)	inactive	inactive	inactive		
COc1cc(C)cc2c1OC(c1ccccc1)CC2=O.Cl (configuration not stated)	inactive	inactive	inactive	26 µg/mL	
